Source: patent US20240197728A1, “METHODS AND PHARMACEUTICAL COMPOSITIONS FOR TREATING REFRACTORY EPILEPSY” (INSERM (INSTITUT NATIONAL DE LA SANTÉ ET DE LA RECHERCHE …, priority 2021, published 2024)

System: KCC2
Assay: Immunoprecipitation/immunoblot of KCC2 phosphorylation and expression in hippocampo-cortical slices
Type: cell-based, rat
Settings: for change of total KCC2 expression: slices; for change of total KCC2 expression / change of KCC2 phosphorylation at S940 / change of KCC2 phosphorylation at T906 / change of KCC2 phosphorylation at T1007: vs DMSO
Procedure: For all experiments on hippocampal cultures, neurons were pre-incubated for 2 hours with either DMSO, PCPZ or CLP257 in a CO2 incubator set at 37° C. Drugs were added directly to the culture medium. For electrophysiology experiments, neurons were also recorded in presence of these drugs in the bath. For biochemistry experiments on rat hippocampo-cortical slices, slices were incubated with either DMSO (vehicle), CLP257, PCPZ, WNK463 or sodium orthovanadate for 2 hours in interface chambers set at 37° C. For human tissue experiments, slices were pre-incubated with either DMSO, CLP257 or PCPZ for 2 hours in interface chambers set at 37° C. and then also recorded in presence of these compounds.
8-weeks old Sprague Dawley male rats were anesthetized by intraperitoneal ketamine/xylazine injection (120/10 mg/kg) and perfused transcardially with ice-cold (0-4° C.), oxygenated solution (O2/CO2 95/5%), containing (in mM): N-methyl-d-glucamine 93, KCl 2.5, NaH2PO4 1.2, NaHCO330, HEPES 20, D-glucose 20, ascorbic acid 5, sodium pyruvate 3, MgSO4 10 and CaCl2) 0.5 (300-310 mOsm, pH7.4). Brains were removed and transverse hippocampo-cortical slices (400 m thick) were prepared in the same solution using a vibratome (HM650V, Microm). Slices were then incubated for 2-hours with DMSO, the KCC2 enhancers (CLP257, PCPZ, WNK43) or sodium orthovanadate in an interface chamber containing artificial cerebrospinal fluid (ACSF) composed of (in mM): D-glucose 10, KCl 3.5, NaHOC3 26, NaH2PO4 1.25, NaCl 126, CaCl2) 1.6 and MgCl2 1.2 (290 mOsm), equilibrated with 5% CO2 in 95% 02. After the treatments, slices were washed with cold PBS, instantaneously frozen with liquid nitrogen and stored at −80° C.
Slices were mechanically lysed on ice, using a 2 mL Dounce, in a buffer containing (in mM): Tris/HCl, pH 7.5 50, EGTA 1, EDTA 1, sodium orthovanadate 1, sodium-B-glycerophosphate 10, sodium fluoride 50, sodium pyrophosphate 5, sucrose 270, benzamidine 1, phenylmethylsulfonyl fluoride 2, Triton […], (v/v) 2-mercaptoethanol 0.1% and protease inhibitors (Roche). After complete homogenization, samples were centrifuged (16,000×g at 4° C. for 10 min) and the supernatant was collected. Protein quantification was done using Pierce BCA Protein Assay kit (Thermo Scientific) with BSA as standard.
The following phosphorylation site-specific antibodies: anti-KCC3A phospho Thr1048 (0.35 mg/ml, sheep, [S0961C] 1st bleed, Dundee), anti-KCC3A phospho Thr 991 (0.26 mg/ml, sheep, [S959C] 1st bleed, Dundee) were first incubated for 30 min at 4° C. with the corresponding non-phosphorylated peptide (10 mg/ml, Dundee).
Phospho-antibodies or anti-KCC2 antibodies (07-432; Millipore) were then coupled with protein-G-Sepharose (4 Fast Flow; Sigma-Aldrich) at a ratio of […] of antibody per 100 μl of beads, for 2 h at 4° C. without agitation. 1.5 mg of clarified cell lysate was incubated with the antibody-coupled bead suspension, overnight at 4° C. under gentle agitation. The supernatant was collected after centrifugation and beads were washed twice with NaCl solution (0.25M NaCl in 1×PBS) and twice with PBS alone. Bound proteins were eluted with 2×LDS sample buffer (Invitrogen) containing 0.5% (v/v) 2-mercaptoethanol and denaturated at 75° C. for 20 min (IP with phospho-antibodies) or 37° C. for 1 h (IP with anti-KCC2 antibodies) before centrifugation (13,000×g at 4° C. for 15-20 min).
Samples were subjected to electrophoresis on polyacrylamide gradient gels (4-12% bis-tris gels) and transferred to nitrocellulose membranes. Membranes were rinsed with TBS-tween solution (TBST; Invitrogen) and blocked with 5% (w/v) skim milk. The membranes were then immunoblotted in 5% (w/v) skim milk in TBST with a primary antibody against KCC2 (rabbit, 07-432; Millipore; 1:1000), or phosphotyrosine (mouse, clone 4G10, Millipore, 1:1000), and a mouse primary antibody against neuron-specific beta-III tubulin overnight at 4° C. (clone 2G10; T8578; Sigma-Aldrich; 1:1000). […]

Structure (SMILES) | change of tyrosine phosphorylation of KCC2 (100 μM CLP257, 2 h) | change of total KCC2 expression (100 μM CLP257, 2 h) | change of KCC2 phosphorylation at S940 (100 μM CLP257, 2 h) | change of KCC2 phosphorylation at T906 (100 μM CLP257, 2 h) | change of KCC2 phosphorylation at T1007 (100 μM CLP257, 2 h) | change of tyrosine phosphorylation of KCC2 (10 μM PCPZ, 2 h) | change of total KCC2 expression (10 μM PCPZ, 2 h) | change of KCC2 phosphorylation at S940 (10 μM PCPZ, 2 h) | change of KCC2 phosphorylation at T906 (10 μM PCPZ, 2 h) | change of KCC2 phosphorylation at T1007 (10 μM PCPZ, 2 h)
O=C1N=C(N2CCCCN2)S/C1=C\c1ccc(F)cc1O [CLP257, (5Z)-5-[(4-Fluoro-2-hydroxyphenyl)methylene]-2-(tetrahydro-1-(2H)-pyridazinyl)-4(5H)-thiazolone] | +19.00±15.00% | −6.92±11.80% | −19.70±34.40% | −12.70±10.90% | −18.50±17.10% | – | – | – | – | –
CN1CCN(CCCN2c3ccccc3Sc3ccc(Cl)cc32)CC1 [PCPZ, prochlorperazine] | – | – | – | – | – | +6.38±14.7% | +12.1±32.8% | +20.30±18.70% | −10.20±10.40% | +26.40%±17.00
